Assay results as given in patent US9340788B2 (priority 2007, dated 2016).

Tested on: HCMV
Assay: HCMV IE1 / viral gene expression, western blot of infected cells
Assay type: cell-based, Human cytomegalovirus
Conditions: for HCMV IE1 gene expression: IMC-3G3 10 μg/ml 12 h or Gleevec 100 nM 1 h pre-treatment, western blot
Procedure: (A) pp65 immunofluorescence after HCMV treatment (1 h, 4° C.) followed by shifting to 37° C. for indicated times. Rows represent (top to bottom): HEL, PDGFRα null fibroblasts, parental fibroblasts, null fibroblasts overexpressing hPDGFRα, HEL transfected with control, or PDGFRα siRNA. Nuclei were stained with DAPI. (B) Average±S.D. pp65 positive/100 cells counted in triplicate from (A). (C) Mock or HCMV infected cells were analyzed by western blotting with the indicated antibodies. Lanes 1-4 indicate HEL, 325S, PDGFRα null and PDGFRα null over-expressing hPDGFRα, respectively. (D) HEL transfected with control or PDGFRα siRNA were mock (lanes 1) or HCMV-treated (lanes 2) and subjected to western blots with indicated antibodies. (E) Western blot of HEL and U87 lysates after infection with mock (lanes 1), HCMV (lanes 2), or HCMV pretreated with IMC-3G3 (10 μg/ml, 12 h, lanes 3) or Gleevec (100 nM, 1 h, lanes 4). (F) PDGFRα siRNA treated cells infected with indicated HCMV strains and immunostained for IE1 12 hpi (primary infection). 6 dpi, supernatants were used to infect naïve HEL cells, followed by IE1 immunostaining and quantification (secondary infection). Average (n=6) values±S.D. are shown.
HUVEC cells were pre-treated with IMC-3G3 (10 μg/ml, Imclone, 12 h), or Gleevec (100 nM, 1 h) prior to HCMV or mock infection. 12 hours post-infection, cell lysates were analyzed by western blot for the presence of IE1 gene product. […] The same blot was stripped and re-probed for actin (lower panel). Lane designation is 1—Mock, 2—HCMV, 3—IMC-3G3+HCMV, 4—Gleevec+HCMV.
Upper panel: HEL cells pretreated with anti-human PDGFRα antibody (10 ng/ml, for 30 min, clone AF-307-NA from R&D; lanes 1 and 3) or with AG 1295 (lane 4, […], from Calbiochem) were stimulated with Towne HCMV (lanes 2 through 4) or Mock infected (lane 1) for 10 min at 37 C. Cells were washed and further incubated for 2 h at 37 C (to allow expression of IE1 gene product). Afterwards, cells were harvested in RIPA buffer and processed for western blotting as described.
Western Blot, Immunoprecipitation, and Immunofluorescence analyses. For stimulation experiments, cells were serum-starved for 24 h, followed by stimulation with HCMV (MOI of 0.5), PDGF-AA (5-10 ng/ml, from R&D Systems), or mock, for 10 minutes. In some cases, cells were pre-treated with IMC-3G3 (ImClone Inc.) at 10 µg/ml (2 or 12 h) or Gleevec® (100 nM, 1 h) prior to HCMV exposure. Cell lysates were analyzed by SDS-PAGE. Antibodies used were as follows: polyclonal anti-PDGFRα ( 1/500), phosphor-Tyrosine clone 4G10 ( 1/1000), and monoclonal anti-p85 PI3-K ( 1/1000), (Upstate Biotechnology), anti HCMV IE1 MAB810 (Chemicon; 1/1000), anti HCMV pp65 (Novocastra, 1/1000), anti-phosphor-PDGFRα ( 1/500, pTyr 754), anti-phosphor-Akt (Ser 473, 1/1000) and total Akt ( 1/1000; all from Cell Signaling). Anti-actin polyclonal control antibody was used ( 1/500, Sigma). Immunoprecipitations were performed using protein G (Pierce) according to manufacturer's instructions. For immunofluorescence, monoclonal HCMV pp65 and phosphor-PDGFRα (p-Tyr 754, Santa Cruz Biotechnology) were used, overnight at 4° C., followed by 1 hour incubation with secondary antibodies conjugated to Alexa-488, or Alexa 568 ( 1/5,000, Molecular Probes). Nuclei were counterstained with DAPI. Co-immunoprecipitation experiments were performed using full length soluble purified recombinant gB (gB 680, from Don Diamond, City of Hope, Calif.) and detergent soluble extract of HEL cells generated in lysis buffer (1% NP-40, 75 mM NaCl and 50 mM Tris-HCl). 500 μg of protein from total cell extract was incubated with 25 μg of gB 680 in lysis buffer in the presence of an anti-gB (Virusys, Inc) or anti-PDGFRα (R&D) antibody overnight at 4° C. Immune complexes were recovered with protein A-Sepharose beads (2 hr incubation), denatured and separated on SDS-PAGE for western blot with anti-gB (Virusys, Inc) or anti-PDGFRα (Cell Signaling Technology) antibodies.

IMC-3G3: humanized PDGFRα blocking antibody (ImClone Inc.)
completely inhibited: HCMV IE1 gene expression (HEL cells) | HCMV IE1 expression (HUVEC, pre-treated with IMC-3G3 10 μg/ml 12 h or Gleevec 100 nM 1 h, western blot 12 hours post-infection) | HCMV IE1 gene expression (U87 glioma cells) | HCMV gene expression (human epithelial, endothelial, and fibroblast cells)
